Measurements reported in patent publication US20090192209A1, “Extended treatment of tumors through vessel occlusion with light activated drugs” (Light Sciences Oncology, Inc., priority 2004, published 2009).

Key:
[1] = system: targeted tumors, including liver metastases arising from various primaries; conditions: clinical tests, PDT; Cancer 2003; 98:1767-71; cited from earlier work
[2] = system: R1 rhabdomyosarcoma tumor fragment implanted in liver; experiment: PDT with single implanted LED light source proximal to tumor-feeding vessel in rat liver tumor model; type: in vivo, WAG/Rij rats
Procedure: A study was carried out to explore whether placement of a single light source in proximity to an identified tumor-feeding vessel could result in effective treatment of larger volumes of the organ in which there was neoplasia than might be achieved using direct PDT on tumor tissue itself.
Methods. The liver of each of 20 WAG/Rij rats was implanted with a R1 rhabdomyosarcoma tumor fragment. […] A 10×1.5 mm LED light source was implanted in the liver proximal to an upstream feeding vessel. LEDs were placed at a distance ≧5 mm from the tumor to ensure that the tumor itself was outside the direct illumination effect of the PDT. After a 10-minute drug-light interval, a light dose totaling 200 J/cm was administered. Animals were sacrificed at various time points, up to 10 days post treatment, and the extent and the mechanism of cell death was evaluated histologically using TUNEL [TdT-mediated dUTP-X nick end labeling] and EM [Electron Microscopy].

C=Cc1c(C)c2cc3nc(c(CC(=O)N[C@@H](CC(=O)O)C(=O)O)c4[nH]c(cc5nc(cc1[nH]2)C(C)=C5CC)c(C)c4C(=O)O)[C@@H](CCC(=O)O)[C@@H]3C [Talaporfin Sodium]
objective response rates in targeted tumors [1]: 33-50% | cell death in tumors implanted downstream from the targeted vessel (TUNEL, EM) ([2]; 5 mg/kg i.v. tail vein, 10-minute drug-light interval, 200 J/cm, LED ≧5 mm from tumor): cell death was consistently induced by a predominantly apoptotic mechanism | cell death in tumors similarly close to light source but vascularized by vessels other than the one targeted ([2]; 5 mg/kg i.v., 200 J/cm): no cell death was observed | time cell death first observed after PDT (TUNEL) ([2]; 5 mg/kg i.v., 200 J/cm, tumors downstream from targeted vessel): 2 days | closure of larger blood vessels / extended PDT effect ([2]; dosed at 2 mg/kg or less): not sufficient to close larger blood vessels | extent of PDT treatment effect ([2]; dosed at 2 mg/kg or less): restricted to the immediate vicinity of the illumination
